Measured values as given in patent US20050004094A1, “Cephem compounds” (priority 2003, published 2005).
≈ marks a conversion by molar mass, not a printed value.

Test system: Pseudomonas aeruginosa FP 1456
Assay: In vitro antibacterial activity, two-fold agar-plate dilution method (MIC)
Format: cell-based
Conditions: incubation at 37° C. for 20 hours; for MIC: FP1456, heart infusion agar, read-out: MIC (minimal inhibitory concentration)
Experimental: In vitro antibacterial activity was determined by the two-fold agar-plate dilution method as described below. One loopful of an overnight culture of each test strain in Trypticase-soy broth (10^6 viable cells per ml) was streaked on heart infusion agar (HI-agar) containing graded concentrations of representative test compound, and the minimal inhibitory concentration (MIC) was expressed in μg/ml after incubation at 37° C. for 20 hours.

Structure (SMILES) | MIC | MIC (minimal inhibitory concentration) (heart infusion agar)
CC(C)(O/N=C(\C(=O)N[C@@H]1C(=O)N2C(C(=O)[O-])=C(C[n+]3ccccc3)CS[C@H]12)c1csc(N)n1)C(=O)O [Ceftazidime, reference compound] | 32 µg/mL (≈ 58.5 µM) | –
Cn1c(CCN)cc[n+]1CC1=C(C(=O)O)N2C(=O)[C@@H](NC(=O)/C(=N\OC(C)(C)C(=O)O)c3nsc(N)n3)[C@H]2SC1.O=S(=O)([O-])O [Compound (a), 3-[3-(2-aminoethyl)-2-methyl-1-pyrazolio]methyl-7β-[(Z)-2-(5-amino-1,2,4-thiadiazol-3-yl)-2-(1-carboxy-1-methylethoxyimino)acetamido]-3-cephem-4-carboxylic acid hydrogen sulfate] | 1 µg/mL | –
Cn1c(CCNC(=N)N)cc[n+]1CC1=C(C(=O)[O-])N2C(=O)[C@@H](NC(=O)/C(=N\OC(C)(C)C(=O)O)c3nsc(N)n3)[C@H]2SC1 [Compound (b), 3-{[3-(2-{[amino(imino)methyl]amino}ethyl)-2-methyl-1-pyrazolio]methyl}-7β-({(2Z)-2-(5-amino-1,2,4-thiadiazol-3-yl)-2-[(1-carboxy-1-methylethoxy)imino]ethanoyl}-amino)-3-cephem-4-carboxylate] | 2 µg/mL (≈ 3.15 µM) | –
Cn1cc(CCN)c[n+]1CC1=C(C(=O)[O-])N2C(=O)[C@@H](NC(=O)/C(=N\OC(C)(C)C(=O)O)c3nsc(N)n3)[C@H]2SC1 [Compound (c), 3-{[4-(2-aminoethyl)-2-methyl-1-pyrazolio]methyl}-7β-({(2Z)-2-(5-amino-1,2,4-thiadiazol-3-yl)-2-[(l-carboxy-1-methylethoxy)imino]ethanoyl}amino)-3-cephem-4-carboxylate] | – | 2 µg/mL (≈ 3.37 µM)
